This is an account of results in ChEMBL document CHEMBL5154636, “Discovery of STAT3 and Histone Deacetylase (HDAC) Dual-Pathway Inhibitors for the Treatment of Solid Cancer” (J Med Chem, 2021).

Calls of active or inactive are those of the source. No cut-off for these calls is given here.

Series [1] concerns MDA-MB-231. Briefly: Antimigratory activity against human MDA-MB-231 cells assessed as inhibition of cell migration at 5 uM after 24 hrs by scratch wound healing assay based phase contrast microscopy analysis. It is filed as functional.
In series [2] the test system is MDA-MB-231. Briefly: Inhibition of colony formation in human MDA-MB-231 cells at 0.5 to 0.5 uM incubated for 24 hrs followed by culturing in fresh compound-free medium for 15 days by crystal violet dye based assay. It is filed as functional, cell-based. The conditions noted are these: dose 0.5-0.5 µM.
The target in series [3] is Histone deacetylase 4 (Homo sapiens) (UniProt P56524). Briefly: Inhibition of recombinant human HDAC4 at 10 uM using […] substrate by fluorescence assay relative to control.
Histone deacetylase 4 (Homo sapiens), sequence (P56524 whole entry): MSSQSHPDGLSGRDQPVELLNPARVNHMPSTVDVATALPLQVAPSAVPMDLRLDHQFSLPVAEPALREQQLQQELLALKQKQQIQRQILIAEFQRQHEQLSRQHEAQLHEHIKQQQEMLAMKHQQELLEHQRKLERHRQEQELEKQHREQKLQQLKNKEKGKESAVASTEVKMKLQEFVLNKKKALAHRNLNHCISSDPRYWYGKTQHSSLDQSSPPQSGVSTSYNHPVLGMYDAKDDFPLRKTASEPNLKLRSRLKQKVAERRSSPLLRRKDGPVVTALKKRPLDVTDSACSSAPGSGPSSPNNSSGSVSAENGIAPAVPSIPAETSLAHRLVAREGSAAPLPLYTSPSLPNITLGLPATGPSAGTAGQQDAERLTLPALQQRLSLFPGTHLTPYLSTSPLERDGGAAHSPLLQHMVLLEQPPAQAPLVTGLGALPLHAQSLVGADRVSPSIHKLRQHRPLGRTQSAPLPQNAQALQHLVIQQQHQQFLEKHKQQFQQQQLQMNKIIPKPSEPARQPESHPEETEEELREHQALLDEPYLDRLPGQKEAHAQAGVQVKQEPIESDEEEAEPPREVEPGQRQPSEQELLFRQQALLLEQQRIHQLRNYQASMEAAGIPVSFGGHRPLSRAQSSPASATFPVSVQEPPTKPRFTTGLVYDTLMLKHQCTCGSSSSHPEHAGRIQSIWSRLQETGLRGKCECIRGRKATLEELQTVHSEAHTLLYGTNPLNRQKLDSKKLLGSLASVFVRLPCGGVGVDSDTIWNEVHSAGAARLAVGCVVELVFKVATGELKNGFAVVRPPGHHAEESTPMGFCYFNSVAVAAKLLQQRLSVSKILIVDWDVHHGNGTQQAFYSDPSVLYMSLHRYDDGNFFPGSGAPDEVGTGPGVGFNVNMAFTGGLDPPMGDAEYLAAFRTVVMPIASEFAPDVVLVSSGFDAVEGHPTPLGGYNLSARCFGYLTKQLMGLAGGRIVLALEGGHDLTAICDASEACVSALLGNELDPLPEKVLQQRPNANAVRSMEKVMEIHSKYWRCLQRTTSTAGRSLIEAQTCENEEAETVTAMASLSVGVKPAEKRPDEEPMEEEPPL
The target of series [4] is Histone deacetylase (Homo sapiens) (UniProt Q13547+O15379+Q9UBN7+Q92769+Q9UQL6+Q8WUI4+Q9BY41+Q96DB2+P56524+Q9UKV0+Q969S8). Briefly: Inhibition of HDAC in human MDA-MB-231 cells assessed as increase in alpha tubulin acetylation incubated for 24 hrs by Western blot analysis. The format is cell-based. The conditions noted are these: dose 0.5-5 µM, DDE = dose-dependent effect. (A western blot detects proteins with antibodies after separation by electrophoresis.)

Series [5] concerns the target T1, Protein deacetylase HDAC6 (Homo sapiens, UniProt Q9UBN7).
T1 sequence (Q9UBN7 whole entry): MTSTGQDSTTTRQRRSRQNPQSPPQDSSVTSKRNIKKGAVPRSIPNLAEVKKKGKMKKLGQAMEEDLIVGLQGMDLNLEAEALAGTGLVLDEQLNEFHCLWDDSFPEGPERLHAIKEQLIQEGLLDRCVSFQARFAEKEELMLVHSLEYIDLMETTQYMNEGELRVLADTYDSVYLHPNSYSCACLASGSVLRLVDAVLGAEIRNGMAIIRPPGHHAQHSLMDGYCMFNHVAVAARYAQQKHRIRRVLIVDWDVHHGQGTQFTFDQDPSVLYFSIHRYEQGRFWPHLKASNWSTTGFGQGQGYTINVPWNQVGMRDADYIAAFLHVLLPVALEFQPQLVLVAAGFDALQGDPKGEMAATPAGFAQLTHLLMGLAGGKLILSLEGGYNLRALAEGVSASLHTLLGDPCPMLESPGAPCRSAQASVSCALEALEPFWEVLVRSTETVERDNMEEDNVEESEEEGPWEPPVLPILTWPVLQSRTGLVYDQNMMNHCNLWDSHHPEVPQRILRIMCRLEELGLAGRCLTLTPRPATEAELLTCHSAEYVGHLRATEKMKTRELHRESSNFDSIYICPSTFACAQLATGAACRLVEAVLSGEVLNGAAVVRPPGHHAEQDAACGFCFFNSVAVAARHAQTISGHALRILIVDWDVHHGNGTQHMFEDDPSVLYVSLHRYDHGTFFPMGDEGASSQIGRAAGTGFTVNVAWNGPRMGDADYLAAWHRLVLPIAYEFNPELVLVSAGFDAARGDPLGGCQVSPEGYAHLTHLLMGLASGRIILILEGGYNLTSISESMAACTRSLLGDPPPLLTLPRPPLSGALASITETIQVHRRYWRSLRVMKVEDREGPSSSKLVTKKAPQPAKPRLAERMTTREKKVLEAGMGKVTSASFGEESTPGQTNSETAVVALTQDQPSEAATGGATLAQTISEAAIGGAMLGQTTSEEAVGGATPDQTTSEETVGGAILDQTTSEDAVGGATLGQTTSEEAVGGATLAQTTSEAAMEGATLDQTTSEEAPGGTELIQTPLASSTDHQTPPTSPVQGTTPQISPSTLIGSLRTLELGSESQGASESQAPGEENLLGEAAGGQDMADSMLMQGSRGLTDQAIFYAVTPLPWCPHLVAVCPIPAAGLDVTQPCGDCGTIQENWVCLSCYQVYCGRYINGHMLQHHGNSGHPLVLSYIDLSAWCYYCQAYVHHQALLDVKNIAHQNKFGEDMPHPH
Description: Inhibition of recombinant human HDAC6 using RHKK(Ac)AMC fluorogenic peptide as substrate by fluorescence assay.

Series [6] deals with Signal transducer and activator of transcription 3 (Homo sapiens, UniProt P40763). Description: Binding affinity to recombinant GST tagged STAT3 (unknown origin) assessed as dissociation constant.
Signal transducer and activator of transcription 3, sequence (P40763 whole entry): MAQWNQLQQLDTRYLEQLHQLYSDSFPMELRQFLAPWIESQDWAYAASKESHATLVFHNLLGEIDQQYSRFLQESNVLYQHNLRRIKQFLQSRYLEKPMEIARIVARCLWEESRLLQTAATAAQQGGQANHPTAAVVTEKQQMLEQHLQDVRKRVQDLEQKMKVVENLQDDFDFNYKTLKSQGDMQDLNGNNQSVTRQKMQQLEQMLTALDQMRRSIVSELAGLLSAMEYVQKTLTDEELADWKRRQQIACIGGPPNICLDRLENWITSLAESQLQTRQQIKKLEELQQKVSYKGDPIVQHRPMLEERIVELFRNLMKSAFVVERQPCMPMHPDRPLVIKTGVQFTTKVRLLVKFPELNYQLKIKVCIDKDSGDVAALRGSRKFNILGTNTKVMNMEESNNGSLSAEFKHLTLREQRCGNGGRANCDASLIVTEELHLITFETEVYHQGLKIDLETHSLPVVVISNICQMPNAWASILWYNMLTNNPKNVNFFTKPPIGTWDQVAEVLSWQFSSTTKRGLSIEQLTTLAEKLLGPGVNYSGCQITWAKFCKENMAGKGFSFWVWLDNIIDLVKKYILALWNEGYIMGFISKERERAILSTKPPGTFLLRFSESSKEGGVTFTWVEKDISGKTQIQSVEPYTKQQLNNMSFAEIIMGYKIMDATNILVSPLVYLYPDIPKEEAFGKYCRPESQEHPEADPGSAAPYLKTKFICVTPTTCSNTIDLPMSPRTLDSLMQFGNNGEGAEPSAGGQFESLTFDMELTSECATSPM
The test system of series [7] is MDA-MB-231. Description: Induction of apoptosis in human MDA-MB-231 cells assessed as chromatin condensation at 0.5 to 5 uM incubated for 24 hrs by Hoechst 33258 staining based fluorescence microscopy analysis. The format is functional, cell-based. The conditions noted are these: dose 0.5-5 µM.
The test system of series [8] is MDA-MB-231. Briefly: Induction of apoptosis in human MDA-MB-231 cells assessed as chromatinorrhexis at 0.5 to 5 uM incubated for 24 hrs by Hoechst 33258 staining based fluorescence microscopy analysis. The conditions noted are these: dose 0.5-5 µM. It is filed as functional, cell-based.
Series [9] relates to MDA-MB-231. Briefly: Induction of apoptosis in human MDA-MB-231 cells assessed as viable cells at 2 uM incubated for 24 hrs by Annexin-V/FITC and PI staining based flow cytometry analysis (reference value: 97.8%). The format is functional. The conditions noted are these: read-out: Activity. A general note: A flow cytometer gives signals particle by particle.
Series [10] relates to MDA-MB-231. Briefly: Induction of apoptosis in human MDA-MB-231 cells assessed as viable cells at 5 uM incubated for 24 hrs by Annexin-V/FITC and PI staining based flow cytometry analysis (reference value: 97.8%). It is filed as functional. The conditions noted are these: read-out: Activity.
Series [11] deals with MDA-MB-231. Description: Induction of apoptosis in human MDA-MB-231 cells assessed as early apoptotic cells at 5 uM incubated for 24 hrs by Annexin-V/FITC and PI staining based flow cytometry analysis (reference value: 1.4%). The format is functional.
For series [12], the system named is MDA-MB-231. Description: Induction of apoptosis in human MDA-MB-231 cells assessed as early apoptotic cells at 10 uM incubated for 24 hrs by Annexin-V/FITC and PI staining based flow cytometry analysis (reference value: 1.4%). The format is functional.
The subject of series [13] is MDA-MB-231. Briefly: Induction of apoptosis in human MDA-MB-231 cells assessed as necrotic cells at 5 uM incubated for 24 hrs by Annexin-V/FITC and PI staining based flow cytometry analysis (reference value: 0.0%). The format is functional.
In series [14] the test system is MDA-MB-231. Briefly: Induction of apoptosis in human MDA-MB-231 cells assessed as increase in cleaved capase-3 level at 0.5 to 5 uM incubated for 24 hrs by Western blot analysis. The format is functional, cell-based. The conditions noted are these: dose 0.5-5 µM.
Series [15] deals with MDA-MB-231. Briefly: Induction of apoptosis in human MDA-MB-231 cells assessed as increase in cleaved PARP level at 0.5 to 5 uM incubated for 24 hrs by Western blot analysis. The format is functional, cell-based. The conditions noted are these: dose 0.5-5 µM.
The subject of the next series is MCF-10A. Briefly: Cytotoxicity against human MCF-10 A cells assessed as reduction in cell viability at 32 uM incubated for 48 hrs by MTT assay relative to control. It is filed as toxicity, cell-based. A general note: Formazan colour is commonly taken as a measure of viable cells.
Series [16] can be described thus: Half life in Sprague-Dawley rat at 20 mg/kg, po measured upto 24 hrs by LC-MS/MS analysis. It is filed as ADME, organism-based. The conditions noted are these: in vivo.
A further series concerns 4T1. Description: Antitumor activity against mouse 4T1 cells allografted in BALB/c mouse assessed as reduction in tumor volume at 15 mg/kg, ip qd for 21 days and measured every 3 days by vernier caliper method relative to control. The format is functional. More on the design: scale not given: the % may be the effect or the level left. The conditions noted are these: time 21 day.

As usually defined, the inhibition is the change of the read-out against control, counted positive when it falls. The term IC50 denotes the concentration that inhibits the measured activity by half. What is called half-life is how long it takes for the measured level to halve. On to `COc1cc(/C=C/c2ccc(OCCCCCCC(=O)NO)cc2)cc(OC)c1`, for which the result in the series on MDA-MB-231 [1], in the series on MDA-MB-231 [7], in the series with MDA-MB-231 [8], with MDA-MB-231 [14] and in the series with MDA-MB-231 [15] was Active. Further, the inhibition entry with MDA-MB-231 [2] was “Active”. For the same compound, the inhibition in series [3] worked out at 12%. Moreover, the Activity result is “Dde” in series [4]; 15.2% with MDA-MB-231 [11]; 39.6% with MDA-MB-231 [12]; 0.2% in the series on MDA-MB-231 [13]; 38% with MCF-10A; 54% in the series on 4T1. The IC50 in series [5] turned out to be 104 nM. The Kd in [6] came out at 0.01516 s⁻¹; in series [6] (read-out: Kd) it was 33.6 nM. The viability at 2 µM with MDA-MB-231 [9] is 89.3%. Moreover, the viability at 5 µM with MDA-MB-231 [10] worked out at 80.8%. This compound also had a half-life in [16] of 52.8 min.
